Tested on: cholesterol-fed hamsters
Test: Effect on serum lipids of cholesterol-fed hamsters (serum total cholesterol and triglyceride reduction rate)
Type: in vivo
Settings: cholesterol-fed Syrian hamsters, oral once a day for 5 days
Protocol: Pharmacological Test Example 1: Effect on serum lipids of cholesterol-fed hamsters
Syrian hamsters (Std:Syrian, Male, 4 weeks old) were freely fed with chow containing 1% cholesterol and 10% coconut oil for 3 weeks ad libitum.
At the last week of feeding, each of the test compounds was dissolved or suspended in either 0.1% hydrochloric acid solution or 1% polyethylene-hydrogenated castor oil (NIKKOL HCO-60) solution and was orally administrated to hamsters once a day for 5 days. For the hamsters of the control group, only the solvent was orally administered. Then, blood was collected from the abdominal vein under the condition of anesthesia with pentobarbital at 2-4 hours after the last administration, and the serum in the blood was separated. The serum total cholesterol value and the serum triglyceride value were determined by using autobiochemical analyzer with analizing kits, and reduction rate of the serum lipids was determined according to the equation indicated below based on the analyzed values for respective hamster groups.
Serum lipids reduction rate (%)=(Amount of serum lipids of the control group−Amount of serum lipids of the group administrated with the test compound)/Amount of serum lipids of the control group×100

SMILES | Serum lipids reduction rate comparing to Control group (%), Means of 3 animals: Total cholesterol (dose 25 mg/kg) [%] | Serum lipids reduction rate comparing to Control group (%), Means of 3 animals: Triglyceride (dose 25 mg/kg) [%] | further results
O=C(Nc1ccc(-n2ccnc2)cc1)c1ccccn1 [4-24] | – | – | Serum lipids reduction rate comparing to Control group (%), Means of 3 animals: Total cholesterol (dose 12.5 mg/kg): 30%; Serum lipids reduction rate comparing to Control group (%), Means of 3 animals: Triglyceride (dose 12.5 mg/kg): 25%
O=C(Nc1ccc(-n2ccnc2)cc1)c1ccc[nH]1 [4-38] | – | – | Serum lipids reduction rate comparing to Control group (%), Means of 3 animals: Total cholesterol (dose 12.5 mg/kg): 32%; Serum lipids reduction rate comparing to Control group (%), Means of 3 animals: Triglyceride (dose 12.5 mg/kg): 31%
O=C(Nc1ccc(-n2ccnc2)cc1)c1cc2ccccc2o1 [4-31] | 46 | 59 | –
O=C(COc1cccnc1)Nc1ccc(-n2ccnc2)cc1 [Compound No. 4-85] | 39 | 44 | –
CC12CCC(C(=O)Nc3ccc(-n4ccnc4)cc3)(OC1=O)C2(C)C (stereo not drawn) [4-19] | 19 | 50 | –
Cc1c(C(=O)Nc2ccc(-n3ccnc3)cc2)oc2ccccc12 [4-62] | 42 | 59 | –
Cc1cc(=O)oc2cc(OCC(=O)Nc3ccc(-n4ccnc4)cc3)ccc12 [4-88] | 39 | 53 | –
O=C(Nc1ccc(-n2ccnc2)cc1)c1ccncc1 [4-27] | 40 | 46 | –
O=C(COc1ccc2ncccc2c1)Nc1ccc(-n2ccnc2)cc1 [4-73] | 34 | 50 | –
O=C(Nc1ccc(-n2ccnc2)cc1)c1ccc2c(c1)OCO2 [4-21] | 51 | 57 | –
O=C(Nc1ccc(-n2ccnc2)cc1)c1cnccn1 [4-33] | – | – | Serum lipids reduction rate comparing to Control group (%), Means of 3 animals: Total cholesterol (dose 12.5 mg/kg): 35%; Serum lipids reduction rate comparing to Control group (%), Means of 3 animals: Triglyceride (dose 12.5 mg/kg): 44%
O=C(COc1ccc2c(c1)OCO2)Nc1ccc(-n2ccnc2)cc1 [4-80] | 40 | 52 | –
O=C(Nc1ccc(-n2ccnc2)cc1)c1nccc2ccccc12 [4-22] | 48 | 61 | –
O=C(Nc1ccc(-n2ccnc2)cc1)c1ccc2ccc(O)nc2c1 [4-44] | 21 | 31 | –
O=C(CCc1cccnc1)Nc1ccc(-n2ccnc2)cc1 [4-90] | 22 | 36 | –
O=C(CC1CCc2sccc2C1=O)Nc1ccc(-n2ccnc2)cc1 (stereo not drawn) [4-72] | 37 | 53 | –
O=C(CN1C(=O)COc2ccccc21)Nc1ccc(-c2cn[nH]c2)cc1 [4-92] | 29 | 34 | –
O=C1CCC(C(=O)Nc2ccc(-n3ccnc3)cc2)=NN1 [4-46] | 52 | 45 | –
Cn1cccc1C(=O)Nc1ccc(-n2ccnc2)cc1 [4-39] | 25 | 45 | –
O=C(Nc1ccc(-n2ccnc2)cc1)c1cnc2ccccc2n1 [4-37] | – | – | Serum lipids reduction rate comparing to Control group (%), Means of 3 animals: Total cholesterol (dose 12.5 mg/kg): 26%; Serum lipids reduction rate comparing to Control group (%), Means of 3 animals: Triglyceride (dose 12.5 mg/kg): 25%
O=C(COc1nc2c(c(C(F)(F)F)n1)CCO2)Nc1ccc(-n2ccnc2)cc1 [4-81] | – | – | Serum lipids reduction rate comparing to Control group (%), Means of 3 animals: Total cholesterol (dose 12.5 mg/kg): 22%; Serum lipids reduction rate comparing to Control group (%), Means of 3 animals: Triglyceride (dose 12.5 mg/kg): 43%

SMILES | Serum lipids reduction rate comparing to Control group (%), Means of 3 animals: Total cholesterol (dose 25 mg/kg) [%] | Serum lipids reduction rate comparing to Control group (%), Means of 3 animals: Triglyceride (dose 25 mg/kg) [%] | further results
O=C(CSc1cnccn1)Nc1ccc(-n2ccnc2)cc1 [4-87] | 34 | 37 | –
O=C(Nc1ccc(-n2ccnc2)cc1)c1ccc(Cl)nc1 [4-25] | – | – | Serum lipids reduction rate comparing to Control group (%), Means of 3 animals: Total cholesterol (dose 12.5 mg/kg): 25%; Serum lipids reduction rate comparing to Control group (%), Means of 3 animals: Triglyceride (dose 12.5 mg/kg): 52%
CC(C)(C)c1cc(C(=O)Nc2ccc(-n3ccnc3)cc2)[nH]n1 [4-16] | 34 | 34 | –
O=C(Nc1ccc(-n2ccnc2)cc1)c1cc2cc(F)ccc2[nH]1 [4-9] | 44 | 61 | –
Cc1ccc2[nH]c(C(=O)Nc3ccc(-n4ccnc4)cc3)cc2c1 [4-7] | 27 | 31 | –
COc1cc2cc(CCC(=O)Nc3ccc(-n4ccnc4)cc3)n(S(C)(=O)=O)c2cc1OC [4-100] | 26 | 33 | –
O=C(Nc1ccc(-n2ccnc2)cc1)c1ccc2ccccc2n1 [4-41] | 50 | 67 | –
O=C(Nc1ccc(-n2ccnc2)cc1)c1cccnc1 [4-26] | – | – | Serum lipids reduction rate comparing to Control group (%), Means of 3 animals: Total cholesterol (dose 6.25 mg/kg): 22%; Serum lipids reduction rate comparing to Control group (%), Means of 3 animals: Triglyceride (dose 6.25 mg/kg): 48%
O=C(Nc1ccc(-n2ccnc2)cc1)C1CCCO1 (racemic) [4-17] | – | – | Serum lipids reduction rate comparing to Control group (%), Means of 3 animals: Total cholesterol (dose 12.5 mg/kg): 35%; Serum lipids reduction rate comparing to Control group (%), Means of 3 animals: Triglyceride (dose 12.5 mg/kg): 53%
COc1ccc2c(c1)cc(C(=O)Nc1ccc(-n3ccnc3)cc1)n2C [4-6] | – | – | Serum lipids reduction rate comparing to Control group (%), Means of 3 animals: Total cholesterol (dose 12.5 mg/kg): 41%; Serum lipids reduction rate comparing to Control group (%), Means of 3 animals: Triglyceride (dose 12.5 mg/kg): 71%
Cc1cc(C(=O)Nc2ccc(-n3ccnc3)cc2)[nH]n1 [4-15] | – | – | Serum lipids reduction rate comparing to Control group (%), Means of 3 animals: Total cholesterol (dose 12.5 mg/kg): 37%; Serum lipids reduction rate comparing to Control group (%), Means of 3 animals: Triglyceride (dose 12.5 mg/kg): 73%
O=C(Nc1ccc(-n2ccnc2)cc1)C1COc2ccccc2O1 (stereo not drawn) [4-70] | 34 | 48 | –
COc1cccc2cc(C(=O)Nc3ccc(-n4ccnc4)cc3)oc12 [4-63] | 26 | 29 | –
O=C(COc1ncccn1)Nc1ccc(-n2ccnc2)cc1 [4-101] | 41 | 38 | –
Cc1ccc2ccc(C(=O)Nc3ccc(-n4ccnc4)cc3)cn12 [4-71] | 45 | 62 | –
O=C(Nc1ccc(-n2ccnc2)cc1)c1n[nH]c2ccccc12 [4-34] | 37 | 39 | –
Cn1c(CCC(=O)Nc2ccc(-n3ccnc3)cc2)nc2ccccc21 [4-97] | – | – | Serum lipids reduction rate comparing to Control group (%), Means of 3 animals: Total cholesterol (dose 12.5 mg/kg): 26%; Serum lipids reduction rate comparing to Control group (%), Means of 3 animals: Triglyceride (dose 12.5 mg/kg): 33%
O=C(Nc1ccc(-n2ccnc2)cc1)c1ccco1 [4-48] | 76 | 85 | –
O=C(Nc1ccc(-n2ccnc2)cc1)c1cc2ccccc2[nH]1 [4-2] | – | – | Serum lipids reduction rate comparing to Control group (%), Means of 3 animals: Total cholesterol (dose 12.5 mg/kg): 32%; Serum lipids reduction rate comparing to Control group (%), Means of 3 animals: Triglyceride (dose 12.5 mg/kg): 45%
CC1(C(=O)Nc2ccc(-n3ccnc3)cc2)Cc2ccccc2O1 (racemic) [4-12] | 27 | 41 | –
O=C(COc1cnc2ccccc2n1)Nc1ccc(-n2ccnc2)cc1 [4-79] | – | – | Serum lipids reduction rate comparing to Control group (%), Means of 3 animals: Total cholesterol (dose 12.5 mg/kg): 29%; Serum lipids reduction rate comparing to Control group (%), Means of 3 animals: Triglyceride (dose 12.5 mg/kg): 45%
